Measured values as given in PMC10206162 (Nature Communications, 2023).
Where two headings read alike, the source gives them in different places. Where no end group is shown, it is not given here.

What was measured:
human NaV1.8 = human NaV1.8 (Homo sapiens, UniProt Q9Y5Y9); assay: cell-based; conditions: EC50 (potency), hNaV1.8
human NaV1.6 = human NaV1.6 (Homo sapiens, UniProt Q9UQD0); assay: cell-based
human NaV1.9 = human NaV1.9 (Homo sapiens, UniProt Q9UI33); format: cell-based
mouse NaV1.7 = mouse NaV1.7 (Mus musculus, UniProt Q62205); assay: cell-based; format: cell-based
Procedure: HEK293 cells stably expressing the α-subunit of mouse Nav1.7, human NaV1.6 or Nav1.7 plus the β1 subunit (SB Drug Discovery, Glasgow, United Kingdom) and Chinese Hamster Ovary (CHO) cells stably expressing human NaV1.8 plus the β3 subunit in a tetracycline-inducible system (ChanTest, Cleveland, OH, United States), were cultured were maintained on MEM supplemented with 10% heat-inactivated FBS, 2 mM L-glutamine in an incubator at 37 °C with 5% CO2 and passaged every 3–4 days (at 70–80% confluency) using TrypLE Express (Thermo Fisher Scientific).
Whole-cell patch-clamp experiments were performed using a QPatch16X automated electrophysiology platform (Sophion Bioscience, Ballerup, Denmark). The extracellular solution (ECS) contained 145 mM NaCl (replaced with 70 mM choline chloride for NaV1.7), 4 mM KCl, 2 mM CaCl2, 1 mM MgCl2, 10 mM HEPES, and 10 mM glucose (pH 7.4; osmolarity, 305 mOsm). The intracellular solution (ICS) contained 140 mM CsF, 1 mM/5 mM EGTA/CsOH, 10 mM HEPES, and 10 mM NaCl (pH 7.3) with CsOH (osmolarity, 320 mOsm). Peptides were diluted in ECS with 0.1% BSA.
Concentration-response experiments were performed using a holding potential of −90 mV and a 50-ms pulse to −20 mV ( + 10 mV for NaV1.8) every 20 s (0.05 Hz). […] Conductance-voltage curves were obtained by calculating the conductance (G) at each voltage (V) using the equation G = I/(V – Vrev), where Vrev is the reversal potential, and they were fitted with the following single or double Boltzmann equations: I = Imax/{1 + exp[(V50 − Vm)/k]} or I = {Imax(a)/[1+exp({V50 (a) – Vm}/k(a))]} + {Imax(b)/[1 + exp({V50(b) – Vm}/k(b))]}, where Imax is the maximal current after normalisation to the driving force, V50 is the half-activation potential, Vm is the membrane potential, and k is the slope factor. For statistical comparison of G-V curves, a two-tailed unpaired t-test was used.

human NaV1.7 = human NaV1.7 (Homo sapiens, UniProt Q15858); assay: cell-based
Chain of human NaV1.7 (Q07699 19-218): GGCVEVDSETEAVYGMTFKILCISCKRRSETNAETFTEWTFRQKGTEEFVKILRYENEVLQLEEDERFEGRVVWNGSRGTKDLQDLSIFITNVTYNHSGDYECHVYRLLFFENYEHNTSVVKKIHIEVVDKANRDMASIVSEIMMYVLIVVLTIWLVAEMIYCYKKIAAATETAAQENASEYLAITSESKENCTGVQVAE
Chain of human NaV1.7 (Q15858 whole entry): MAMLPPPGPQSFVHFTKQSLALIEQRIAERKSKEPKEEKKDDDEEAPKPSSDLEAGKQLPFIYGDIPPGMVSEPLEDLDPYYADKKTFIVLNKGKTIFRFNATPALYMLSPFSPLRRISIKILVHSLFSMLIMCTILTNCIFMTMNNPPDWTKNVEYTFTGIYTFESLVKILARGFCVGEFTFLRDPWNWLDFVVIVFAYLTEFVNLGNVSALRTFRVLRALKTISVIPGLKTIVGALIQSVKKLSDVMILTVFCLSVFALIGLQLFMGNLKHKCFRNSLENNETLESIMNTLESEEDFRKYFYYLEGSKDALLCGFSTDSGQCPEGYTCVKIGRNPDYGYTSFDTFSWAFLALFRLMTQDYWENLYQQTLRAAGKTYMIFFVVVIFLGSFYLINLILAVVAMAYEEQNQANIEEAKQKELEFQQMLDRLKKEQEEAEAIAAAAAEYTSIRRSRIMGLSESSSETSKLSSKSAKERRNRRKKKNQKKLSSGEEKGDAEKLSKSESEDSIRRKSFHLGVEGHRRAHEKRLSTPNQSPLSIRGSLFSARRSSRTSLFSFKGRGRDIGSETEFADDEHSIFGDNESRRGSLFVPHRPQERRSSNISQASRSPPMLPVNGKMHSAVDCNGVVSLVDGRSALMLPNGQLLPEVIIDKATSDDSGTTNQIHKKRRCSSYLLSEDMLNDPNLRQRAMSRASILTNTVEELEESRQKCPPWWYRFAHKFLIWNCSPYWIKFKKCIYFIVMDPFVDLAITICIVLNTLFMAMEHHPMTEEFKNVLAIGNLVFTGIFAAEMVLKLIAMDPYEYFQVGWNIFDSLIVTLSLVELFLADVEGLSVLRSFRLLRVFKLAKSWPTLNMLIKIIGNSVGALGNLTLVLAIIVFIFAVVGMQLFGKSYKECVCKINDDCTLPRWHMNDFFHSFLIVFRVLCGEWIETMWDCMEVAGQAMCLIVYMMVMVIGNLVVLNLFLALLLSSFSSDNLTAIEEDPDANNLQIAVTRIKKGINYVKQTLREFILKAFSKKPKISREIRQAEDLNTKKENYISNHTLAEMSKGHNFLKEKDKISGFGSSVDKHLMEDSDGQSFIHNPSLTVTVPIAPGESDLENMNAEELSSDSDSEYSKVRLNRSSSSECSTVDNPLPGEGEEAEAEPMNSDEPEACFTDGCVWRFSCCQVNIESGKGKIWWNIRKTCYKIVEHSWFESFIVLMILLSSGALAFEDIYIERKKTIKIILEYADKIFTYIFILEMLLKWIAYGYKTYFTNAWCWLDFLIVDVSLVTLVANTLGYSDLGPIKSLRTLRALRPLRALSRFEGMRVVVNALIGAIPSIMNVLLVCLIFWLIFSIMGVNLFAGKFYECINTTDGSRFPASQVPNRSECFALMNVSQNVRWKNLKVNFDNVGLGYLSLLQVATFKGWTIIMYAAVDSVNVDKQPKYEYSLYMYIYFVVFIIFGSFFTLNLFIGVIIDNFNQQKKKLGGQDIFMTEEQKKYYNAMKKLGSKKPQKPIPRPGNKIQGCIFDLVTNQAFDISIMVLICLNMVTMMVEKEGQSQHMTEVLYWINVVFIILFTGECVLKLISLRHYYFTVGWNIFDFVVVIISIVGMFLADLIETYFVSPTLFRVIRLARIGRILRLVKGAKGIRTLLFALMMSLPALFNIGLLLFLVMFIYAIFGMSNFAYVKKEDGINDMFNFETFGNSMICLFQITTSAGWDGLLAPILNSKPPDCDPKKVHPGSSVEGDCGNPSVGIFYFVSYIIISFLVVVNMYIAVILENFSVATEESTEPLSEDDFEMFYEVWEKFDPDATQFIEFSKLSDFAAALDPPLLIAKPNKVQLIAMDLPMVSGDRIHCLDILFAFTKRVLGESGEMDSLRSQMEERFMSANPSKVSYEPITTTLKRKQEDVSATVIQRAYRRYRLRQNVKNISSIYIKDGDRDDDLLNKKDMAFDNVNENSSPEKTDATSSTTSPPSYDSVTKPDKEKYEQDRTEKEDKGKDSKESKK

Chain of mouse NaV1.7 (Q62205 whole entry): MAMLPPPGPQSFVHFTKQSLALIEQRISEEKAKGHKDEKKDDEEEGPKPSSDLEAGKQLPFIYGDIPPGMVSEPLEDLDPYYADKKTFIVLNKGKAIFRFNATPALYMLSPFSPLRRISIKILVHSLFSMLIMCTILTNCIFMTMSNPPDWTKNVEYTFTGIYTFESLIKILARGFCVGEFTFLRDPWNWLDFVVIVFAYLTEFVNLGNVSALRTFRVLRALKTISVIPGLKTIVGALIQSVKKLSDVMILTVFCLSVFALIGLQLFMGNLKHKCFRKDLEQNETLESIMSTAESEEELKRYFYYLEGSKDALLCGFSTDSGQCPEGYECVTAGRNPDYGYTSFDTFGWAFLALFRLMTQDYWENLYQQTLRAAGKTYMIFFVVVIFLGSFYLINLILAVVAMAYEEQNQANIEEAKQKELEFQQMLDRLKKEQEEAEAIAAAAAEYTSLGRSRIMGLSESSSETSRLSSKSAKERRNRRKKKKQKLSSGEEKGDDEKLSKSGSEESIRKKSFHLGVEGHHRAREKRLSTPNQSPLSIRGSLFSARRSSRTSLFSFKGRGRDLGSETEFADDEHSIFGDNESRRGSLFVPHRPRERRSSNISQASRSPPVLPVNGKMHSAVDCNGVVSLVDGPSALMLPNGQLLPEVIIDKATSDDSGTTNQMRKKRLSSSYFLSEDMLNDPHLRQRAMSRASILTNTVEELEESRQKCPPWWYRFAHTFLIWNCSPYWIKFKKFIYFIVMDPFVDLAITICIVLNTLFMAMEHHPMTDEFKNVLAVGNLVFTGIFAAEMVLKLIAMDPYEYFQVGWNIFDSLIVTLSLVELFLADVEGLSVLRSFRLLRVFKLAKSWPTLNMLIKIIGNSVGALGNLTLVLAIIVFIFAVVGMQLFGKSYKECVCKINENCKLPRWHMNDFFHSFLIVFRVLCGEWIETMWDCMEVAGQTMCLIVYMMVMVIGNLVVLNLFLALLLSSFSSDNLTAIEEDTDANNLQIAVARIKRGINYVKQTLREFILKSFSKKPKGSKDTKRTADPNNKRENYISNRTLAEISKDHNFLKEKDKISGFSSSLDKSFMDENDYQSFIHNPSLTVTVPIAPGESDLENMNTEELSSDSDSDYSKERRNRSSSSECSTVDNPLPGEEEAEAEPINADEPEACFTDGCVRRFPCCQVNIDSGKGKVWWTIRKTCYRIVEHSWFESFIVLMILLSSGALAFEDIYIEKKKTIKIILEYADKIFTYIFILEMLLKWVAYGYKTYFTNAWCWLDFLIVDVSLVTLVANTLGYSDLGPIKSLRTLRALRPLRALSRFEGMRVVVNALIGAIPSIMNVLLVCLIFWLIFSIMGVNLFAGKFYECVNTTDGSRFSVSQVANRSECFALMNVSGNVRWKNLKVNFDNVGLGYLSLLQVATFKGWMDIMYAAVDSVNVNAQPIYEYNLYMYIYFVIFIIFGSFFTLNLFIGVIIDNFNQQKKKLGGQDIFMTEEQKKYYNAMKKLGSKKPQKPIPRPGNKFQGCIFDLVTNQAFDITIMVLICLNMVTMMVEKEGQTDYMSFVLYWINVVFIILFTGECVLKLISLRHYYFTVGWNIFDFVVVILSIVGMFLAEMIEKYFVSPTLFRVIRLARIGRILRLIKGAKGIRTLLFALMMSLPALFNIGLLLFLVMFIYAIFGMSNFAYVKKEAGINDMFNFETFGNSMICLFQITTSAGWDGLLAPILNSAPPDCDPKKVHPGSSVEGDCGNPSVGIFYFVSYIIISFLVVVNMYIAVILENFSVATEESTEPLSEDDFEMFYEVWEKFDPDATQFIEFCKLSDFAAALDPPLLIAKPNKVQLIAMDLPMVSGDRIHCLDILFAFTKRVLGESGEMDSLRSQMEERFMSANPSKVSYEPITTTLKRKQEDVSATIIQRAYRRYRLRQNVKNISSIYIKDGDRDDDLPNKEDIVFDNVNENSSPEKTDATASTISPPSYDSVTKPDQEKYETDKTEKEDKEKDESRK
Chain of mouse NaV1.7 (Q07699 19-218, further chain): as the sequence (Q07699 19-218) above

Row | Substance | EC50 (human NaV1.8) | EC50 (human NaV1.6; SEM) | hNaV1.9 I50-ms, % of peak (human NaV1.9; SEM) | EC50 (mouse NaV1.7) | mNaV1.7 sustained current, % of control peak (mouse NaV1.7; 3 µM peptide, step –90 to –20 mV, n = 4-5 cells, mean ± SEM, SEM) | EC50 (mouse NaV1.7; EC50 (potency), mNaV1.7, HEK293, hold −90 mV, pulse to −20 mV, I40-ms/Imax, mean ± SEM, SEM) | EC50 (mouse NaV1.7; EC50, 95% CI (profile likelihood), mNaV1.7 (I40ms), Supplementary Fig. 2f / 2i) | hNaV1.7 peak current amplitude, % of control (human NaV1.7) | EC50 (human NaV1.7; EC50 (potency), hNaV1.7, SEM) | hNaV1.7 sustained current (I40-ms), % of control peak (human NaV1.7; SEM) | EC50 (human NaV1.6) | activity at hNaV1.9 (sustained current vs control) (human NaV1.9) | EC50 (human NaV1.7; EC50 (potency), hNaV1.7) | EC50 (human NaV1.7; NaV1.7, best-fit EC50)
1 | FLPLLILGSLLMTPPVIQAIHDAQR-NH2 [Pc1a, poneratoxin] | > 10000 nM | 97 ± 10 nM | 58.6 ± 4.4% | 1160 nM | 8.8 ± 2.0% | 1800 ± 200 nM | 718 to 2680 nM | 57.8 ± 4.9% | 2300 ± 400 nM | 12.2 ± 1.2% |  |  |  | 
2 | GLPLLALLMTLPFIQHAITN-NH2 [Mri1a] |  |  |  |  |  |  |  | 68.1 ± 10.6% |  | 3.4 ± 0.7% | 3240 nM | inactive | > 10000 nM | 5600 nM
